{"source": "patent EP4501112A1", "about": "“PLANT DEFENSE ELICITORS” (Globachem NV, priority 2023, dated 2025)", "assay_type_in_all_cases": "in vivo", "key": {"[1]": {"test_system": "Root knot nematode (Meloidogyne graminicola)", "assay": "Root knot nematode gall development on wheat roots after treatment", "settings": "foliar spraying, stock solution 200 x diluted; 400 J2 per plant 24 hours after treatment; 14 days after inoculation", "protocol": "DISEASE/PEST: Root knot nematode (Meloidogyne graminicola) CROP: Triticum aestivum APPLICATION: Foliar application EXPERIMENT/TRIAL PROTOCOL: After seed germination, wheat plants were grown individually for 2 weeks in a PVC tube (18 cm height, 3 cm diameter) filled with a substrate of sand and a water-absorbing polymer (DCM Aquaperla). Plants were grown at 24 °C and supplied with Hoagland solution and water 3 times per week. They were treated after 2 weeks. Twenty-four hours after treatment they were inoculated with 400 nematode juveniles (second stage; J2) per plant. 8 individual plants were analyzed per treatment. Evaluation of nematode infection was done 14 days after inoculation. Development of galls on the roots was microscopically observed and counted. No females were observed yet at this early time point, in any of the treatments. The number of galls was reduced in the […], pelargonic acid ([…] decanoic acid (pm4) treated plants. Azelaic acid (pm3) had no effect on gall numbers in the used concentration. FORMULATION USED: […] PM1 is already formulated."}, "Leptosphaeria maculans": {"test_system": "Leptosphaeria maculans", "assay": "Seed treatment lab trial against Leptosphaeria maculans in oilseed rape seedlings", "settings": "for Emax: Plenodomus lingam, in Brassica napus, 144 h, 6 days after inoculation, read-out: % Efficacy", "from_the_text": "[table] Table 8: Efficacy assessment of fatty acids in seed treatment of Leptosphaeria maculans in oilseed rape (variety Helga)"}, "Fusarium culmorum": {"test_system": "Fusarium culmorum", "assay": "whole plant or invertebrate", "settings": "for Emax: Fusarium culmorum, in Triticum aestivum, 144 h, read-out: % Efficacy"}, "[2]": {"test_system": "Winter wheat (cv. Keitum)", "assay": "Biostimulant effect of seed coating on winter wheat (greenhouse, root scans)", "from_the_text": "[table] Table 13. Biostimulant effect of ammonium pelargonate on winter wheat (cv. Keitum) 14 days after sowing"}, "Spodoptera exigua": {"test_system": "Spodoptera exigua", "assay": "S. exigua survival, larval weight and leaf damage on pea plants after foliar spray", "set-up": "key to plant damage (1 to 5 scale): 0=no damage or no sucking observed; 1=some damage or some sucking observed; 3=half leaf eaten or half of aphids sucking the leaf; 5=no leaf left or all insects sucking and reproducing", "settings": "0.016 g in 5 mL water with 0.25% tween 20, foliar", "protocol": "DISEASE/PEST: Spodoptera exigua CROP: pea plants (Pisum sativum) APPLICATION: FOLIAR EXPERIMENT/TRIAL PROTOCOL: Peas were grown in pots in the greenhouse (4 plants/pot). […] Plants were sprayed with a small handheld sprayer. 5 ml of spraying volume was applied. First instar (L1) Spodoptera larvae were added to the plants 24h after the treatment. Plant damage, larval survival and larval weight were followed up for 12 days. […] Table 4. Effect on survival and leaf damage of S. exigua on P. sativum."}, "[3]": {"settings": "seed coating 2 L/mt, 14 days after sowing"}, "[4]": {"settings": "seed coating 2 L/mt, 14 days after sowing, relative to untreated check"}}, "note": "Read-outs that look alike come from different tables or passages of the source.", "data": [{"compound": "CCCCCCCC(=O)O", "note": "[Caprylic acid, caprylic acid]", "values": [{"measurement": "number of galls", "setting": "[1]", "value": "reduced"}, {"measurement": "Emax", "setting": "Leptosphaeria maculans; seed treatment 7.60 g/ton", "value": 80, "unit": "%"}, {"measurement": "Emax", "setting": "Fusarium culmorum; seed treatment 6.08 g/ton", "value": 80, "unit": "%"}, {"measurement": "Emax", "setting": "Fusarium culmorum; seed treatment 7.60 g/ton", "value": 80, "unit": "%"}]}, {"compound": "Ammonium percholate", "values": [{"measurement": "% efficacy", "setting": "Leptosphaeria maculans; in vivo", "value": 70, "unit": "%"}, {"measurement": "% efficacy", "setting": "Fusarium culmorum; in vivo", "value": 60, "unit": "%"}]}, {"compound": "O=C(O)CCCCCCCC(=O)O", "note": "[Azaleic acid, Azelaic acid]", "values": [{"measurement": "number of galls", "setting": "[1]", "value": "no effect"}, {"measurement": "Emax", "setting": "Leptosphaeria maculans; seed treatment 1.52 g/ton", "value": 100, "unit": "%"}, {"measurement": "Emax", "setting": "Leptosphaeria maculans; seed treatment 2.28 g/ton", "value": 100, "unit": "%"}, {"measurement": "Emax", "setting": "Leptosphaeria maculans; seed treatment 3.04 g/ton", "value": 100, "unit": "%"}, {"measurement": "Emax", "setting": "Leptosphaeria maculans; seed treatment 4.56 g/ton", "value": 80, "unit": "%"}, {"measurement": "Emax", "setting": "Leptosphaeria maculans; seed treatment 6.08 g/ton", "value": 80, "unit": "%"}, {"measurement": "Emax", "setting": "Leptosphaeria maculans; seed treatment 7.60 g/ton", "value": 80, "unit": "%"}]}, {"compound": "CCCCCCCCC(=O)O.N", "note": "[Ammonium pelargonate]", "values": [{"measurement": "root length, surface and volume, tips and forks per plant", "setting": "[2]; coated seeds compared with untreated seedlings", "value": "Seeds coated with ammonium pelargonate showed an increase in root length, surface and volume and an increase in tips and forks per plant. (Table 12)"}, {"measurement": "Forks (#/plant)", "setting": "[2]; [3]", "value": "330.70 #/plant"}, {"measurement": "Fresh weight (g/plant)", "setting": "[2]; [3]", "value": 0.53, "unit": "g/plant"}, {"measurement": "Plant height (cm)", "setting": "[2]; [3]", "value": 22.5, "unit": "cm"}, {"measurement": "Root diameter (mm)", "setting": "[2]; [3]", "value": 0.27, "unit": "mm"}, {"measurement": "Root length (cm)", "setting": "[2]; [3]", "value": 142.1, "unit": "cm"}, {"measurement": "Root surface (cm^2)", "setting": "[2]; [3]", "value": 11.90, "unit": "cm^2"}, {"measurement": "Root volume (cm^3)", "setting": "[2]; [3]", "value": 0.08, "unit": "cm^3"}, {"measurement": "Tillers (#/plant)", "setting": "[2]; [3]", "value": "0.40 #/plant"}, {"measurement": "Tips (#/plant)", "setting": "[2]; [3]", "value": "1585.20 #/plant"}, {"measurement": "Forks (%UNCK)", "setting": "[2]; [4]", "value": 146.65, "unit": "%UNCK"}, {"measurement": "Fresh weight (%UNCK)", "setting": "[2]; [4]", "value": 99.81, "unit": "%UNCK"}, {"measurement": "Plant height (%UNCK)", "setting": "[2]; [4]", "value": 100.9, "unit": "%UNCK"}, {"measurement": "Root diameter (%UNCK)", "setting": "[2]; [4]", "value": 95.08, "unit": "%UNCK"}, {"measurement": "Root length (%UNCK)", "setting": "[2]; [4]", "value": 131.5, "unit": "%UNCK"}, {"measurement": "Root surface (%UNCK)", "setting": "[2]; [4]", "value": 124.21, "unit": "%UNCK"}, {"measurement": "Root volume (%UNCK)", "setting": "[2]; [4]", "value": 117.23, "unit": "%UNCK"}, {"measurement": "Tips (%UNCK)", "setting": "[2]; [4]", "value": 120.36, "unit": "%UNCK"}]}, {"compound": "CCCCCCCCCC(=O)O", "note": "[Decanoic acid, decanoic acid]", "values": [{"measurement": "number of galls", "setting": "[1]", "value": "reduced"}, {"measurement": "Emax", "setting": "Leptosphaeria maculans; seed treatment 2.28 g/ton", "value": 80, "unit": "%"}, {"measurement": "Larval weight at day 12", "setting": "Spodoptera exigua; L1 larvae added 24h after treatment", "value": 196, "unit": "mg"}, {"measurement": "Number of larvae after 12 days", "setting": "Spodoptera exigua; L1 larvae added 24h after treatment, 22 larvae at start", "value": 18}, {"measurement": "plant damage (1 to 5 scale)", "setting": "Spodoptera exigua; followed up for 12 days", "value": 1}, {"measurement": "Emax", "setting": "Fusarium culmorum; seed treatment 4.56 g/ton", "value": 60, "unit": "%"}, {"measurement": "Emax", "setting": "Fusarium culmorum; seed treatment 6.08 g/ton", "value": 60, "unit": "%"}, {"measurement": "Emax", "setting": "Fusarium culmorum; seed treatment 7.60 g/ton", "value": 80, "unit": "%"}]}]}
